Data taken from patent US20240294553A1, “SIZE-SELECTIVE ACYCLIC CHELATORS AND THEIR USE FOR THE RECOVERY OF RARE EARTH ELEMENTS” (UT-Battelle, LLC, priority 2023, published 2024).

Assays:
[1] = Leaching of rare-earth elements from mixed rare-earth hydroxide; conditions: RT, 26 h, 20 mM lixiviant; for selectivity of leaching of REEs (percent dissolution): pH 8.2, CHES/CAPS buffer, 15 mg/mL (La,Nd,Eu,Dy,Y)OH3, FIG. 11
Method: A solution of CHES (400 mM) and CAPS (400 mM) was prepared in H2O. The pH was left unadjusted. Buffered solutions of acyclopa at pH 8.2, 9, and 10 were prepared by adding an aliquot of acyclopa (6.65 mL of a 75.17 mM aqueous stock solution) to a volumetric flask (25 mL) containing CHES/CAPS (12.5 mL). The solution was diluted with concentrated NaOH and H2O to the desired final pH. The final ligand concentration was 20 mM and the final CHES and CAPS concentrations were 200 mM each. Buffered solutions of EDTA were prepared in an analogous manner. For control samples without chelator, CHES/CAPS buffer (200 mM each) was prepared separately for each pH.
Leaching experiments were setup as follows: Various quantities (5±0.3 mg, 10±0.5 mg, and 15±0.5 mg) of (La,Nd,Eu,Dy,Y)OH3 were massed into 2 mL flat-bottomed screw-cap polypropylene tubes. An aliquot of lixiviant solution or buffer only (1 mL) was added to each tube. The samples were rotated end-over-end at 35 RPM and ambient temperature (71±1° F.). At pre-determined time points, the suspensions were centrifuged, and an aliquot of the supernatant (10 μL) was carefully removed and placed into 2% HNO3 (4.990 mL) for ICP-MS analysis. The samples were shaken to break up the pellets and returned to the rotating wheels. At the final time point, the suspensions were filtered via a 96-well filter plate (Pall AcroPrep Advance 0.2 μm Supor Short Tip) and sampled for ICP-MS. The final pH of representative samples was recorded. […] Also, the separation factor was calculated according to the equation below. The leaching of REEs (expressed as percent dissolution) from (La,Nd,Eu,Dy,Y)OH3 by acyclopa as a function of pH (pH 8.2, pH 9, or pH 10) using a CHES/CAPS buffer, RT, 26 h, 20 mM lixiviant, and 5 mg/mL (La,Nd,Eu,Dy,Y)OH3 are shown in FIG. 9. The leaching of REEs (expressed as concentration) from (La,Nd,Eu,Dy,Y)OH3 by acyclopa as a function of solid loading at a pH of 9 using a CHES/CAPS buffer, RT, 26 h, 20 mM lixiviant, and 5-15 mg/mL (La,Nd,Eu,Dy,Y)OH3 are shown in FIG. 10. […]

[2] = Recovery and reuse of acyclopa in multiple leach cycles (oxalic acid stripping)
Method: The release of REEs from acyclopa and their subsequent precipitation as REE2(C2O4)3 was investigated as a function of pH and oxalic acid equivalents. Pregnant leach solutions were prepared at pH 8.2 using acyclopa and La(OH)3, and varying equivalents of H2C2O4 were added. The pH of the samples was reduced stepwise to pH 6, 5, 4, and 3 using HCl. The concentration of La remaining in the supernatant at each pH was analyzed by ICP-MS. The release of REEs from acyclopa and their subsequent precipitation as REE2(C2O4)3 as a function of pH and oxalic acid equivalents is shown in FIG. 12.
Next, the ability to reuse acyclopa in multiple leach cycles was investigated. Leaching samples were prepared as described above at pH 8.2 using acyclopa and La(OH)3. […] To this solution, 2 equivalents of oxalic acid were added, and the pH was adjusted to 3 using HCl. The resulting precipitate was removed. The pH of the filtrate was re-adjusted to 8.2 using NaOH, and another portion of La(OH)3 was added. The suspension was stirred for 24 h, and the percent La dissolved was measured by ICP-MS. In subsequent precipitation cycles, only 1 equivalent of oxalic acid was added. Using this method, ˜75% dissolution was maintained over 4 dissolution/precipitation cycles. The results are shown graphically in FIG. 13.

[3] = Protonation constants and lanthanide complex stabilities by potentiometric titration; format: binding
Method: Protonation constants and lanthanide (Ln) stability constants of acyclopa and acyclopa-XL were obtained by potentiometric titration using either a Metrohm Titrando 888 titrator or an 855 Robotic Titrosampler connected to an 805 Dosimat. Both titration systems were equipped with Ross Orion combination electrodes (8103BN, ThermoFisher Scientific), Metrohm 806 exchange units with automatic burets (10 mL), and Tiamo 2.5 software. The titration vessel was fitted with a removable glass cell and thermostated at 25° C. using an Isotemp 500LC recirculating chiller (Fisher Scientific). CO2 was excluded from the titration vessel using a small positive pressure of argon bubbled through 30 wt % KOH. […]
Before every ligand or ligand-metal titration, the electrode was calibrated in terms of the hydrogen-ion concentration by titrating a solution of standardized HCl (0.005 M) containing supporting electrolyte (KCl=0.095 M) with standardized KOH. Data within the pH ranges of 2.3-3.2 and 10.8-11.3 were analyzed using the program Glee (version 3.0.21) to obtain the standard electrode potential (E0) and slope factor. […] Their exact concentrations were determined potentiometrically from the two sharp endpoints of their titration curves using the formula ((VEP2−VEP1)/npKa)*[KOH]. […]

Compound | selectivity of leaching of REEs (percent dissolution) [1] | percent La dissolved (dissolution of La(OH)3) ([2]; pH 8.2, 24 h, maintained over 4 dissolution/precipitation cycles, ICP-MS, FIG. 13) [%] | initial dissolution of La(OH)3 ([2]; pH 8.2, first leach) | effect of increasing solid loading on La/Y separation ([1]; pH 9, CHES/CAPS buffer, 5-15 mg/mL (La,Nd,Eu,Dy,Y)OH3, FIG. 10) | Δ log KLa-Lu (difference of stability constants log KML) ([3]; 25° C., ionic strength 0.1 M KCl, La^3+ versus Lu^3+) | affinity for rare-earth elements (in words) ([3]; log KML versus ionic radius, FIG. 6)
O=C(O)CN(CCN(CC(=O)O)CC(=O)O)CC(=O)O [EDTA, ethylenediaminetetraacetic acid, reference compound] | fails to demonstrate any selectivity |  |  |  |  | 
O=C(O)c1cccc(CN(CCO)CCOCCOCCN(CCO)Cc2cccc(C(=O)O)n2)n1 [acyclopa, 6,6′-(2,11-bis(2-hydroxyethyl)-5,8-dioxa-2,11-diazadodecane-1,12-diyl)dipicolinic acid] | preferentially leaches large over small REEs | ~75 | nearly all of the La(OH)3 was dissolved initially | significantly increases separative leaching of La from Y | 4.27 | high affinity for large, light REEs and low affinity for small, heavy REEs
